Experimental data from PubChem BioAssay AID2060500 (Molecular Pharmacology Branch, DTP, NCI, 2025).

Test system: 596521-263-R-J1-PDC complex spheroids, viability % of control
Assay: Anticancer human tumor 596521-263-R-J1-PDC patient-derived soft tissue sarcoma cell line growth inhibition [GQUAD]
Conditions: for IC50: curve of first compound; for viability, T/C: stronger effect = lower value; active = viability on the fitted dose curve at most 10% of control; inactive = the rest
Summary of the method: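 Tumor cells were grown as complex spheroids with HUVEC endothelial cells and mesenchymal stem cells as stroma. G-quadruplex stabilizers were combined with targeted agents over half-log dilutions from near the clinical Cmax, or from 10 microM.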

[1] = second compound 0.0316 µM, first compound 0.0316 µM
[2] = second compound 0.0316 µM, first compound 0.1 µM
[3] = second compound 0.0316 µM, first compound 0.316 µM
[4] = second compound 0.0316 µM, first compound 1 µM
[5] = second compound 0.0316 µM, first compound 3.16 µM
[6] = second compound 0.0316 µM, first compound 10 µM
[7] = second compound 0.1 µM, first compound 0.0316 µM
[8] = second compound 0.1 µM, first compound 0.1 µM
[9] = second compound 0.1 µM, first compound 0.316 µM
[10] = second compound 0.1 µM, first compound 1 µM
[11] = second compound 0.1 µM, first compound 3.16 µM
[12] = second compound 0.1 µM, first compound 10 µM
[13] = second compound 0.316 µM, first compound 0.0316 µM
[14] = second compound 0.316 µM, first compound 0.1 µM
[15] = second compound 0.316 µM, first compound 0.316 µM
[16] = second compound 0.316 µM, first compound 1 µM
[17] = second compound 0.316 µM, first compound 3.16 µM
[18] = second compound 0.316 µM, first compound 10 µM
[19] = second compound 1 µM, first compound 0.0316 µM
[20] = second compound 1 µM, first compound 0.1 µM
[21] = second compound 1 µM, first compound 0.316 µM
[22] = second compound 1 µM, first compound 1 µM
[23] = second compound 1 µM, first compound 3.16 µM
[24] = second compound 1 µM, first compound 10 µM
[25] = second compound 3.16 µM, first compound 0.0316 µM
[26] = second compound 3.16 µM, first compound 0.1 µM
[27] = second compound 3.16 µM, first compound 0.316 µM
[28] = second compound 3.16 µM, first compound 1 µM
[29] = second compound 3.16 µM, first compound 3.16 µM
[30] = second compound 3.16 µM, first compound 10 µM
[31] = second compound 10 µM, first compound 0.0316 µM
[32] = second compound 10 µM, first compound 0.1 µM
[33] = second compound 10 µM, first compound 0.316 µM
[34] = second compound 10 µM, first compound 1 µM
[35] = second compound 10 µM, first compound 3.16 µM
[36] = second compound 10 µM, first compound 10 µM
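Note: spheroids exposed to drugs for 7 days before viability reading.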
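Throughout, for viability, T/C: 100% = DMSO vehicle control viability.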

CC(=O)O[C@H]1C(=O)[C@@]2(C)[C@H]([C@H](OC(=O)c3ccccc3)[C@]3(O)C[C@H](OC(=O)[C@H](O)[C@@H](NC(=O)c4ccccc4)c4ccccc4)C(C)=C1C3(C)C)[C@]1(OC(C)=O)CO[C@@H]1C[C@@H]2O + Cc1[nH]c2ccc(F)cc2c1-c1nc2c3cccnc3c3ncccc3c2[nH]1
226 nM: IC50 (second compound 10 µM)
inactive: viability, T/C [1] 90.8% | viability, T/C [2] 55.8% | viability, T/C [3] 20.6% | viability, T/C [7] 96.1% | viability, T/C [8] 60.2% | viability, T/C [9] 28.2% | viability, T/C [13] 107% | viability, T/C [14] 69.1% | viability, T/C [15] 30.8% | viability, T/C [19] 89.1% | viability, T/C [20] 74.9% | viability, T/C [21] 37.5% | viability, T/C [25] 85.4% | viability, T/C [26] 69% | viability, T/C [27] 39.2% | viability, T/C [31] 71.3% | viability, T/C [32] 65.2% | viability, T/C [33] 42.9%
212 nM: IC50 (second compound 1 µM)
204 nM: IC50 (second compound 3.16 µM)
173 nM: IC50 (second compound 0.316 µM)
active: viability, T/C [4] 0.81% | viability, T/C [5] 0.38% | viability, T/C [6] 0.28% | viability, T/C [10] 0.74% | viability, T/C [11] 0.23% | viability, T/C [12] 0.22% | viability, T/C [16] 1.26% | viability, T/C [17] 0.2% | viability, T/C [18] 1.66% | viability, T/C [22] 1.83% | viability, T/C [23] 0.31% | viability, T/C [24] 0.28% | viability, T/C [28] 1.48% | viability, T/C [29] 0.34% | viability, T/C [30] 1.18% | viability, T/C [34] 1.48% | viability, T/C [35] 0.49% | viability, T/C [36] 0.31%
122 nM: IC50 (second compound 0.0316 µM)
144 nM: IC50 (second compound 0.1 µM)

C=CC(=O)N1CCN(c2nc(=O)n(-c3c(C)ccnc3C(C)C)c3nc(-c4c(O)cccc4F)c(F)cc23)C(C)C1 (centres undefined) + CN(C)c1ccc(Nc2c3ccc(NC(=O)CCN4CCCC4)cc3nc3cc(NC(=O)CCN4CCCC4)ccc23)cc1
> 10000 nM: IC50 (second compound 0.0316 µM) | IC50 (second compound 0.1 µM) | IC50 (second compound 0.316 µM) | IC50 (second compound 1 µM) | IC50 (second compound 3.16 µM) | IC50 (second compound 10 µM)
inactive: viability, T/C [1] 114% | viability, T/C [2] 94.2% | viability, T/C [3] 112% | viability, T/C [4] 101% | viability, T/C [5] 98.2% | viability, T/C [6] 69.6% | viability, T/C [7] 110% | viability, T/C [8] 102% | viability, T/C [9] 96.9% | viability, T/C [10] 105% | viability, T/C [11] 103% | viability, T/C [12] 69.2% | viability, T/C [13] 110% | viability, T/C [14] 99.5% | viability, T/C [15] 98.8% | viability, T/C [16] 97.3% | viability, T/C [17] 96.9% | viability, T/C [18] 77.9% | viability, T/C [19] 96.2% | viability, T/C [20] 108% | viability, T/C [21] 103% | viability, T/C [22] 103% | viability, T/C [23] 93.7% | viability, T/C [24] 83.6% | viability, T/C [25] 86.6% | viability, T/C [26] 103% | viability, T/C [27] 94.2% | viability, T/C [28] 92.1% | viability, T/C [29] 111% | viability, T/C [30] 67.6% | viability, T/C [31] 71.3% | viability, T/C [32] 70.3% | viability, T/C [33] 77.2% | viability, T/C [34] 75.6% | viability, T/C [35] 76.3% | viability, T/C [36] 58.3%
